In patent US6683055B1, “Low molecular weight inhibitors of complement proteases” (BASF Aktiengesellschaft, priority 1999, dated 2004):
Structures can show the parent of a compound that is named as a salt.

Tests used:
[1] = biological target: T1, C1r from human plasma, activated, two-chain form (Homo sapiens, UniProt P00736); experiment: Color substrate test for C1r inhibition (Example A); assay type: biochemical; settings: amidolytic C1r activity, substrate Cbz-Gly-Arg-S-Bzl; read-out: C1R IC50 according to Example A
T1 construct: from tissue; host or cells: human plasma
T1 sequence (P00736 18-463 partner limits assumed): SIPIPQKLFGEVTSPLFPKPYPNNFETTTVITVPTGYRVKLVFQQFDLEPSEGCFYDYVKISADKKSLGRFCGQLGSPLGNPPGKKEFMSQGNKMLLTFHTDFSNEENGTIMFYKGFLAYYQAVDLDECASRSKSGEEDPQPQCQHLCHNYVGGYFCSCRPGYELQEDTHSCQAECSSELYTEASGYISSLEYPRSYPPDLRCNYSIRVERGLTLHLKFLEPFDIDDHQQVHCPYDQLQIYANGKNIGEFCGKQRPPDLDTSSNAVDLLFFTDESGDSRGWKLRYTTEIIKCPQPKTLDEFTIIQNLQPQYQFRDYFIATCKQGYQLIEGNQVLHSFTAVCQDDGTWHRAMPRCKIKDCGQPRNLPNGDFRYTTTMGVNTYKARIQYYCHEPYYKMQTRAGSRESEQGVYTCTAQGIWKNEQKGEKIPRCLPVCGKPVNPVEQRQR
T1 sequence (P00736 464-705 limits assumed): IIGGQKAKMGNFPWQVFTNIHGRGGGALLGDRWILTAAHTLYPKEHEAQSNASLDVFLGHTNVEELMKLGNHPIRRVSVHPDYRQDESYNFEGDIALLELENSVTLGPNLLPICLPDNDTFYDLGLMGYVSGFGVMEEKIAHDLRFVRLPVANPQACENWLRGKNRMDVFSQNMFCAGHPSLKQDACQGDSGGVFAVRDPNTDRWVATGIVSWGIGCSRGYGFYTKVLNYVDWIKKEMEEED
Excerpt: Color Substrate Test for C1r Inhibition

[2] = biological target: T2, C1s from human plasma, activated, two-chain form (Homo sapiens, UniProt P09871); experiment: Color substrate test for C1s inhibition (Example B); assay type: biochemical; settings: amidolytic C1s activity, substrate Cbz-Gly-Arg-S-Bzl; read-out: C1S IC50 according to Example B
T2 construct: from tissue; host or cells: human plasma
T2 sequence (P09871 16-437 partner limits assumed): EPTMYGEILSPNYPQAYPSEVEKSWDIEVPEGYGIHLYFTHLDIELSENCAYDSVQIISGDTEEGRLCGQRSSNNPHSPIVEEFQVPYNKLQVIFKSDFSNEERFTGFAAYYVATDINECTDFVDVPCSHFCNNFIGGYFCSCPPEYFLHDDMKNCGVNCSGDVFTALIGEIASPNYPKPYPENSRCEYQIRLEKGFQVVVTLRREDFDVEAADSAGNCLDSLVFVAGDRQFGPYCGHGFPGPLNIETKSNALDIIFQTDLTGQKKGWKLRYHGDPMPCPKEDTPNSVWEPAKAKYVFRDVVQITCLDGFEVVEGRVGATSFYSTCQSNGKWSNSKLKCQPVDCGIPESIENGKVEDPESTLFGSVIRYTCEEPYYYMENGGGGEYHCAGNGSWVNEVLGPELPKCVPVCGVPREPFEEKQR
T2 sequence (P09871 438-688 limits assumed): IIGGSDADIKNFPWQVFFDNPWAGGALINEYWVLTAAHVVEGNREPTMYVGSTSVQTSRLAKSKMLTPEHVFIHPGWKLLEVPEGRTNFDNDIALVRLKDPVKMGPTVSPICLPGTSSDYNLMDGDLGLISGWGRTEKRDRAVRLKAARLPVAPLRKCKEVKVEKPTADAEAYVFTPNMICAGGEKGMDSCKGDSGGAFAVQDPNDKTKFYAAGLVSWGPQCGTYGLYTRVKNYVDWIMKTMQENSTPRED
Excerpt: Material and Methods: Color Subrate Test for C1s Inhibition

Compound	IC50 [1]	IC50 [2]
N=C(N)c1ccc(CNC(=O)[C@@H]2CCCN2C(=O)[C@@H](Cc2ccccc2)NS(=O)(=O)CC(F)(F)F)cc1 [Example 1, CF3—CH2—SO2-(D)Phe-Pro-NH-p-amb.CH3COOH]	> 100 µM	6 µM
CCCCCCCCS(=O)(=O)N[C@H](Cc1ccccc1)C(=O)N1CCC[C@H]1C(=O)NCc1ccc(C(=N)N)cc1 [Example 2, n-Octyl-SO2-(D)Phe-Pro-NH-p-amb.CH3COOH]	50 µM	20 µM
N=C(N)c1ccc(CNC(=O)[C@@H]2CCCN2C(=O)[C@@H](Cc2ccccc2)NS(=O)(=O)c2cccnc2)cc1 [Example 3, 3-Py-SO2-(D)Phe-Pro-NH-p-amb.CH3COOH]	> 100 µM	30 µM
N=C(N)c1ccc(CNC(=O)[C@@H]2CCCN2C(=O)CNC(=O)CCCc2ccccc2)cc1 [Example 9, C6H5—(CH2)3—CO-Gly-Pro-NH-p-amb.HI]	> 100 µM	20 µM
CC1CCN[C@@H](C(=O)N2CCC[C@H]2C(=O)NCc2ccc(C(=N)N)cc2)C1 (stereo partly drawn) [Example 10, (D)(4-Me)Pic-Pro-NH-p-amb.2CH3COOH]	> 100 µM	20 µM
N=C(N)c1ccc(CNC(=O)[C@@H]2CCCN2C(=O)[C@H]2Cc3ccccc3CN2)cc1 [Example 11, H-(D)3-Tic-Pro-NH-p-amb.2CH3COOH]	> 100 µM	30 µM
N=C(N)c1ccc(CNC(=O)[C@@H]2CCCN2C(=O)[C@@H](Cc2ccccc2)NCCCS(=O)(=O)O)cc1 [Example 12, HO3S—(CH2)3-(D)Phe-Pro-NH-p-amb.HCl]	> 100 µM	30 µM
CS(=O)(=O)N[C@H](CC1CCCCC1)C(=O)N1CC=C[C@H]1C(=O)NCc1ccc(C(=N)N)nc1 [Example 13, CH3—SO2-(D)Cha-Pyr-NH-3-(6-am)-pico.CH3COOH]	30 µM	10 µM
CS(=O)(=O)N[C@@H](C(=O)N1CCC[C@H]1C(=O)NCc1ccc(C(=N)N)nc1)C1CCCCC1 [Example 14, CH3—SO2-(D)Chg-Pro-NH-3-(6-am)-pico.CH3COOH]	> 100 µM	20 µM
N=C(N)c1ccc(CNC(=O)[C@@H]2CCCN2C(=O)[C@H](NS(=O)(=O)CC(=O)O)C2CCCCC2)cn1 [Example 16, HOOC—CH2—SO2-(D)Chg-Pro-NH-3-(6-am)-pico.CH3COOH]	> 100 µM	20 µM
N=C(N)c1ccc(CNC(=O)[C@@H]2C=CCN2C(=O)C(CCC2CCCCC2)NCC(=O)O)cn1 (stereo partly drawn) [Example 19, HOOC—CH2-HCha-Pyr-NH-3-(6-am)-pico]	30 µM	30 µM
CC(C)(C)OC(=O)CCCN[C@@H](C(=O)N1CCC[C@H]1C(=O)NCc1ccc(C(=N)N)nc1)C1CCCCC1 [Example 27, t-BUOOC—(CH2)3-(D)Chg-Pro-NH-3-(6-am)-pico.CH3COOH]	10 µM	20 µM
N=C(N)c1ccc(CNC(=O)[C@@H]2C=CCN2C(=O)CN(Cc2ccccc2)Cc2ccccc2)cn1 [Example 28, (C6H5—CH2)2-Gly-Pyr-NH-3-(6-am)-pico.CH3COOH]	> 100 µM	20 µM
N=C(N)c1ccc(CNC(=O)[C@@H]2CCN2C(=O)[C@H](NCC(=O)O)C2CCCCC2)s1 [Example 31, HOOC—CH2-(D)Chg-Aze-NH-CH2-5-(2-am)-thioph]	3 µM	10 µM
N=C(N)c1ccc(CNC(=O)[C@@H]2C=CCN2C(=O)[C@@H](CC2CCCCC2)NCC(=O)O)s1 [Example 32, HOOC—CH2-(D)Cha-Pyr-NH—CH2-5-(2-am)-thioph.CH3COOH]	10 µM	30 µM
N=C(N)c1ccc(CNC(=O)[C@@H]2CSCN2C(=O)[C@@H](CC2CCCCC2)NCC(=O)O)s1 [Example 33, HOOC—CH2-(D)Cha-Thz-4-CO—NH—CH2-5-(2-am)-thioph.2HCl]	40 µM	40 µM

Other lines, results leading:

IC50 [1]	IC50 [2]	Compound
> 100 µM	4 µM	2-C6H10—CH2-Gly-Pro-NH-p-amb.2HCl [Example 7]
30 µM	3 µM	CS(=O)(=O)N[C@H](CC1CCCCC1)C(=O)N1CC=C[C@H]1C(=O)NCc1ccc(C(=N)N)cc1 [Example 4, CH3—SO2-(D)Cha-Pyr-NH-p-amb.CH3COOH]
–	10 µM	CC(C)[C@@H](N)C(=O)N1CCC[C@H]1C(=O)NCc1ccc(C(=N)N)cc1 [Example 5, H-(D)Val-Pro-NH-p-amb.2HCl]
–	6 µM	CC(C)(C)OC(=O)N[C@H](CC(=O)OCc1ccccc1)C(=O)N1CCC[C@H]1C(=O)NCc1ccc(C(=N)N)cc1 [Example 6, Boc-(D)Asp(OBn)-Pro-NH-p-amb.CH3COOH]
> 100 µM	6 µM	N=C(N)c1ccc(CNC(=O)[C@@H]2CCCN2C(=O)CNC(=O)CCc2ccccc2)cc1 [Example 8, C6H5—CH2—CH2—CO-Gly-Pro-NH-p-amb.HI]
3 µM	2 µM	N=C(N)c1ccc(CNC(=O)[C@@H]2C=CCN2C(=O)[C@@H](CC2CCCCC2)NS(=O)(=O)Cc2ccccc2)cn1 [Example 15, C6H5—CH2—SO2-(D)Cha-Pyr-NH-3-(6-am)-pico.CH3COOH]
40 µM	4 µM	COC(=O)CS(=O)(=O)N[C@@H](C(=O)N1CCC[C@H]1C(=O)NCc1ccc(C(=N)N)nc1)C1CCCCC1 [Example 17, CH3OOC—CH2—SO2-(D)Chg-Pro-NH-3-(6-am)-pico.CH3COOH]
10 µM	7 µM	N=C(N)c1ccc(CNC(=O)[C@@H]2C=CCN2C(=O)[C@H](NCC(=O)O)C2CCCCC2)cn1 [Example 18, HOOC—CH2-(D)Chg-Pyr-NH-3-(6-am)-pico.CH3COOH]
0.6 µM	2 µM	CC(C)(C)OC(=O)Nc1ccc(CS(=O)(=O)N[C@H](CC2CCCCC2)C(=O)N2CC=C[C@H]2C(=O)NCc2ccc(C(=N)N)nc2)cc1 [Example 20, Boc-NH-p-C6H4CH2—SO2-(D)Cha-Pyr-NH-3-(6-am)-pico-CH3COOH]
4 µM	1 µM	N=C(N)c1ccc(CNC(=O)[C@@H]2C=CCN2C(=O)[C@@H](CC2CCCCC2)NS(=O)(=O)Cc2ccc(N)cc2)cn1 [Example 21, H2N-p-C6H4CH2—SO2-(D)Cha-Pyr-NH-3-(6-am)-pico-HCl]
0.9 µM	0.6 µM	CC(C)(C)OC(=O)Nc1ccc(CS(=O)(=O)N[C@@H](C(=O)N2CC=C[C@H]2C(=O)NCc2ccc(C(=N)N)nc2)C2CCCCC2)cc1 [Example 22, Boc-NH-p-C6H4—CH2—SO2-(D)Chg-Pyr-NH-3-(6-am)-pico.CH3COOH]
0.5 µM	0.8 µM	N=C(N)c1ccc(CNC(=O)[C@@H]2C=CCN2C(=O)[C@H](NS(=O)(=O)Cc2ccc(N)cc2)C2CCCCC2)cn1 [Example 23, H2N-p-C6H4—CH2—SO2-(D)Chg-Pyr-NH-CH2-3-(6-am)-pico.HCl]
> 100 µM	0.8 µM	N=C(N)c1ccc(CNC(=O)[C@@H]2CCCN2C(=O)[C@H](NCCCCCC(=O)O)C2CCCCC2)cn1 [Example 24, HOOC—(CH2)5-(D)Chg-Pro-NH-3-(6-am)-pico.CH3COOH]
50 µM	6 µM	CCOC(=O)CCCCCN[C@@H](C(=O)N1CCC[C@H]1C(=O)NCc1ccc(C(=N)N)nc1)C1CCCCC1 [Example 25, C2H5OOC—(CH2)5-(D)Chg-Pro-NH-3-(6-am)-pico.CH3COOH]
> 100 µM	2 µM	N=C(N)c1ccc(CNC(=O)[C@@H]2CCCN2C(=O)[C@H](NCCCCC(=O)O)C2CCCCC2)cn1 [Example 26, HOOC—(CH2 )4-(D)Chg-Pro-NH-3-(6-am)-pico.CH3COOH]
0.9 µM	0.6 µM	N=C(N)c1ccc(CNC(=O)[C@@H]2C=CCN2C(=O)[C@H](NCC(=O)O)C2CCCCC2)s1 [Example 29, HOOC—CH2-(D)Chg-Pyr-NH-CH2-5-(2-am)-thioph.CH3COOH]
–	8 µM	N=C(N)Nc1ncc(CNC(=O)[C@@H]2C=CCN2C(=O)[C@@H](CC2CCCCC2)NCC(=O)O)s1 [Example 54, N-(Hydroxycarbonyl-methylene)-(D)cyclohexylalanyl-3,4-dehydroprolyl-[5-(2-guanidino)thiazolylmethyl]amide Bishydrochloride]
